Source: PMC12102759 (Protein Science : A Publication of the Protein Society, 2025)
Like-named read-outs stand apart in the source and are kept apart here.

Tested on: PABPC1 PABC
Type: binding, human
Details: DMS-BM library, bait PABPC1 PABC, row aa = residue at this position; for DMS-derived PSSM value (averaged), position K7 / DMS-derived PSSM value, position K7: K = wild type; for DMS-derived PSSM value (averaged), position A6 / DMS-derived PSSM value, position A6 / DMS-derived PSSM value, position A8: A = wild type; for DMS-derived PSSM value (averaged), position E8 / DMS-derived PSSM value, position E10 / DMS-derived PSSM value, position E8: E = wild type
[1] = prey ATXN2, TLNPNAKEFNPRSF(averaged) over the two overlapping peptides
[2] = prey ATXN2, peptide KSTLNPNAKEFNPRSF, R = wild type
[3] = prey ATXN2, peptide TLNPNAKEFNPRSFSQ
[4] = prey ATXN2, TLNPNAKEFNPRSF(averaged) over the two overlapping peptides, N = wild type
[5] = prey ATXN2, peptide TLNPNAKEFNPRSFSQ, N = wild type
[6] = prey ATXN2, peptide KSTLNPNAKEFNPRSF
[7] = prey ATXN2, peptide TLNPNAKEFNPRSFSQ, P = wild type
[8] = prey ATXN2, peptide TLNPNAKEFNPRSFSQ, F = wild type
[9] = prey ATXN2, peptide KSTLNPNAKEFNPRSF, L = wild type
[10] = prey ATXN2, TLNPNAKEFNPRSF(averaged) over the two overlapping peptides, P = wild type
[11] = prey ATXN2, peptide TLNPNAKEFNPRSFSQ, S = wild type
[12] = prey ATXN2, peptide KSTLNPNAKEFNPRSF, N = wild type
[13] = prey ATXN2, peptide KSTLNPNAKEFNPRSF, S = wild type
[14] = prey ATXN2, peptide TLNPNAKEFNPRSFSQ, R = wild type
[15] = prey ATXN2, TLNPNAKEFNPRSF(averaged) over the two overlapping peptides, S = wild type
[16] = prey ATXN2, peptide KSTLNPNAKEFNPRSF, P = wild type

TLNPNAKEFNPRSF(averaged) K7F (TLNPNAFEFNPRSF)
DMS-derived PSSM value (averaged), position K7 [1]: 0.04105

TLNPNAKEFNPRSF(averaged) A6P (TLNPNPKEFNPRSF)
DMS-derived PSSM value (averaged), position A6 [1]: 0

KSTLNPNAKEFNPRSF R14Y (KSTLNPNAKEFNPYSF)
DMS-derived PSSM value, position R14 [2]: 0.04467

TLNPNAKEFNPRSFSQ A6T (TLNPNTKEFNPRSFSQ)
DMS-derived PSSM value, position A6 [3]: 0.2659

TLNPNAKEFNPRSF(averaged) N3W (TLWPNAKEFNPRSF)
DMS-derived PSSM value (averaged), position N3 [4]: 0

TLNPNAKEFNPRSF(averaged) K7E (TLNPNAEEFNPRSF)
DMS-derived PSSM value (averaged), position K7 [1]: 0.01581

TLNPNAKEFNPRSF(averaged) T1H (HLNPNAKEFNPRSF)
DMS-derived PSSM value (averaged), position T1 (prey ATXN2, TLNPNAKEFNPRSF(averaged) over the two overlapping peptides, T = wild type): 0.01509

TLNPNAKEFNPRSFSQ N5H (TLNPHAKEFNPRSFSQ)
DMS-derived PSSM value, position N5 [5]: 0.04051

TLNPNAKEFNPRSF(averaged) N5D (TLNPDAKEFNPRSF)
DMS-derived PSSM value (averaged), position N5 [4]: 0.03885

KSTLNPNAKEFNPRSF R14Q (KSTLNPNAKEFNPQSF)
DMS-derived PSSM value, position R14 [2]: 0.09624

KSTLNPNAKEFNPRSF A8M (KSTLNPNMKEFNPRSF)
DMS-derived PSSM value, position A8 [6]: 0

KSTLNPNAKEFNPRSF A8S (KSTLNPNSKEFNPRSF)
DMS-derived PSSM value, position A8 [6]: 0

TLNPNAKEFNPRSFSQ P4D (TLNDNAKEFNPRSFSQ)
DMS-derived PSSM value, position P4 [7]: 0

TLNPNAKEFNPRSFSQ F9W (TLNPNAKEWNPRSFSQ)
DMS-derived PSSM value, position F9 [8]: 0.6528

TLNPNAKEFNPRSFSQ P4Y (TLNYNAKEFNPRSFSQ)
DMS-derived PSSM value, position P4 [7]: 0

KSTLNPNAKEFNPRSF L4H (KSTHNPNAKEFNPRSF)
DMS-derived PSSM value, position L4 [9]: 0

TLNPNAKEFNPRSFSQ P11S (TLNPNAKEFNSRSFSQ)
DMS-derived PSSM value, position P11 [7]: 0.03014

TLNPNAKEFNPRSF(averaged) P4W (TLNWNAKEFNPRSF)
DMS-derived PSSM value (averaged), position P4 [10]: 0

TLNPNAKEFNPRSFSQ K7R (TLNPNAREFNPRSFSQ)
DMS-derived PSSM value, position K7 [3]: 0.00234

TLNPNAKEFNPRSFSQ P11V (TLNPNAKEFNVRSFSQ)
DMS-derived PSSM value, position P11 [7]: 0.1131

TLNPNAKEFNPRSFSQ S13M (TLNPNAKEFNPRMFSQ)
DMS-derived PSSM value, position S13 [11]: 0.008683

TLNPNAKEFNPRSF(averaged) A6H (TLNPNHKEFNPRSF)
DMS-derived PSSM value (averaged), position A6 [1]: 0

TLNPNAKEFNPRSF(averaged) E8F (TLNPNAKFFNPRSF)
DMS-derived PSSM value (averaged), position E8 [1]: 0

TLNPNAKEFNPRSFSQ S13G (TLNPNAKEFNPRGFSQ)
DMS-derived PSSM value, position S13 [11]: 0.1675

KSTLNPNAKEFNPRSF N12V (KSTLNPNAKEFVPRSF)
DMS-derived PSSM value, position N12 [12]: 0.2093

KSTLNPNAKEFNPRSF S15V (KSTLNPNAKEFNPRVF)
DMS-derived PSSM value, position S15 [13]: 0.09383

TLNPNAKEFNPRSF(averaged) N5T (TLNPTAKEFNPRSF)
DMS-derived PSSM value (averaged), position N5 [4]: 0.01041

KSTLNPNAKEFNPRSF E10N (KSTLNPNAKNFNPRSF)
DMS-derived PSSM value, position E10 [6]: 0.01939

KSTLNPNAKEFNPRSF N5V (KSTLVPNAKEFNPRSF)
DMS-derived PSSM value, position N5 [12]: 0

TLNPNAKEFNPRSFSQ F14M (TLNPNAKEFNPRSMSQ)
DMS-derived PSSM value, position F14 [8]: 0.2558

TLNPNAKEFNPRSFSQ F9D (TLNPNAKEDNPRSFSQ)
DMS-derived PSSM value, position F9 [8]: 0.002637

TLNPNAKEFNPRSFSQ R12F (TLNPNAKEFNPFSFSQ)
DMS-derived PSSM value, position R12 [14]: 0.03143

KSTLNPNAKEFNPRSF S15K (KSTLNPNAKEFNPRKF)
DMS-derived PSSM value, position S15 [13]: 0

KSTLNPNAKEFNPRSF S15R (KSTLNPNAKEFNPRRF)
DMS-derived PSSM value, position S15 [13]: 0.007958

TLNPNAKEFNPRSF(averaged) E8A (TLNPNAKAFNPRSF)
DMS-derived PSSM value (averaged), position E8 [1]: 0.01267

KSTLNPNAKEFNPRSF E10W (KSTLNPNAKWFNPRSF)
DMS-derived PSSM value, position E10 [6]: 0

TLNPNAKEFNPRSFSQ F14H (TLNPNAKEFNPRSHSQ)
DMS-derived PSSM value, position F14 [8]: 0.09586

TLNPNAKEFNPRSFSQ N5F (TLNPFAKEFNPRSFSQ)
DMS-derived PSSM value, position N5 [5]: 0.006389

TLNPNAKEFNPRSFSQ N3T (TLTPNAKEFNPRSFSQ)
DMS-derived PSSM value, position N3 [5]: 0.01993

KSTLNPNAKEFNPRSF N12W (KSTLNPNAKEFWPRSF)
DMS-derived PSSM value, position N12 [12]: 0.1585

TLNPNAKEFNPRSF(averaged) E8I (TLNPNAKIFNPRSF)
DMS-derived PSSM value (averaged), position E8 [1]: 0.006482

TLNPNAKEFNPRSFSQ N3I (TLIPNAKEFNPRSFSQ)
DMS-derived PSSM value, position N3 [5]: 0

TLNPNAKEFNPRSF(averaged) E8N (TLNPNAKNFNPRSF)
DMS-derived PSSM value (averaged), position E8 [1]: 0.07264

TLNPNAKEFNPRSF(averaged) P4D (TLNDNAKEFNPRSF)
DMS-derived PSSM value (averaged), position P4 [10]: 0

TLNPNAKEFNPRSFSQ R12D (TLNPNAKEFNPDSFSQ)
DMS-derived PSSM value, position R12 [14]: 0.05154

TLNPNAKEFNPRSFSQ T1V (VLNPNAKEFNPRSFSQ)
DMS-derived PSSM value, position T1 (prey ATXN2, peptide TLNPNAKEFNPRSFSQ, T = wild type): 0.03168

KSTLNPNAKEFNPRSF N5R (KSTLRPNAKEFNPRSF)
DMS-derived PSSM value, position N5 [12]: 0

KSTLNPNAKEFNPRSF S2N (KNTLNPNAKEFNPRSF)
DMS-derived PSSM value, position S2 [13]: 0

TLNPNAKEFNPRSF(averaged) N5Y (TLNPYAKEFNPRSF)
DMS-derived PSSM value (averaged), position N5 [4]: 0.004226

KSTLNPNAKEFNPRSF E10P (KSTLNPNAKPFNPRSF)
DMS-derived PSSM value, position E10 [6]: 0.01939

TLNPNAKEFNPRSF(averaged) S13R (TLNPNAKEFNPRRF)
DMS-derived PSSM value (averaged), position S13 [15]: 0.00496

KSTLNPNAKEFNPRSF L4I (KSTINPNAKEFNPRSF)
DMS-derived PSSM value, position L4 [9]: 0

TLNPNAKEFNPRSFSQ R12Q (TLNPNAKEFNPQSFSQ)
DMS-derived PSSM value, position R12 [14]: 0.0158

KSTLNPNAKEFNPRSF P6Q (KSTLNQNAKEFNPRSF)
DMS-derived PSSM value, position P6 [16]: 0

TLNPNAKEFNPRSF(averaged) P11F (TLNPNAKEFNFRSF)
DMS-derived PSSM value (averaged), position P11 [10]: 0.06425

TLNPNAKEFNPRSF(averaged) S13A (TLNPNAKEFNPRAF)
DMS-derived PSSM value (averaged), position S13 [15]: 0.1254

TLNPNAKEFNPRSFSQ K7L (TLNPNALEFNPRSFSQ)
DMS-derived PSSM value, position K7 [3]: 0.0009142

TLNPNAKEFNPRSFSQ A6E (TLNPNEKEFNPRSFSQ)
DMS-derived PSSM value, position A6 [3]: 0

KSTLNPNAKEFNPRSF F16T (KSTLNPNAKEFNPRST)
DMS-derived PSSM value, position F16 (prey ATXN2, peptide KSTLNPNAKEFNPRSF, F = wild type): 0.02121

TLNPNAKEFNPRSFSQ E8Q (TLNPNAKQFNPRSFSQ)
DMS-derived PSSM value, position E8 [3]: 0.04954

KSTLNPNAKEFNPRSF P6N (KSTLNNNAKEFNPRSF)
DMS-derived PSSM value, position P6 [16]: 0

KSTLNPNAKEFNPRSF A8T (KSTLNPNTKEFNPRSF)
DMS-derived PSSM value, position A8 [6]: 0

TLNPNAKEFNPRSFSQ E8I (TLNPNAKIFNPRSFSQ)
DMS-derived PSSM value, position E8 [3]: 0.01296

TLNPNAKEFNPRSF(averaged) R12A (TLNPNAKEFNPASF)
DMS-derived PSSM value (averaged), position R12 (prey ATXN2, TLNPNAKEFNPRSF(averaged) over the two overlapping peptides, R = wild type): 0.05134

TLNPNAKEFNPRSFSQ N5R (TLNPRAKEFNPRSFSQ)
DMS-derived PSSM value, position N5 [5]: 0.004201

TLNPNAKEFNPRSFSQ F14W (TLNPNAKEFNPRSWSQ)
DMS-derived PSSM value, position F14 [8]: 0.01201

TLNPNAKEFNPRSF(averaged) L2E (TENPNAKEFNPRSF)
DMS-derived PSSM value (averaged), position L2 (prey ATXN2, TLNPNAKEFNPRSF(averaged) over the two overlapping peptides, L = wild type): 0.04453

TLNPNAKEFNPRSF(averaged) K7L (TLNPNALEFNPRSF)
DMS-derived PSSM value (averaged), position K7 [1]: 0.03789

TLNPNAKEFNPRSFSQ P4V (TLNVNAKEFNPRSFSQ)
DMS-derived PSSM value, position P4 [7]: 0.4281
